What was measured:
[1] = Inhibition of purified wild type Hepatitis C virus 1b NS5B polymerase; design: species or system Hepatitis C virus subtype 1b
[2] = molecular target: RNA-directed RNA polymerase (Hepacivirus hominis, UniProt O39930, S282T); test: Inhibition of purified Hepatitis C virus NS5B polymerase S282T mutant; design: species or system Hepatitis C virus subtype 1b
[3] = Cytotoxicity against human HuH7 cells up to 100 uM after 3 hrs by CellTiter-Blue cell viability assay; format: cell-based; settings: huh-7, 3 h
Hepatitis C virus = test: Antiviral activity against wild type Hepatitis C virus genotype 1b infected in human HuH7 cells after 72 hrs by luciferase reporter gene assay; format: functional, cell-based, Hepacivirus hominis; settings: Huh-7, 72 h
[4] = Inhibition of purified wild type Hepatitis C virus 1a NS5B polymerase; design: species or system Hepatitis C virus subtype 1a
[5] = Inhibition of purified wild type Hepatitis C virus 2a NS5B polymerase; design: species or system Hepatitis C virus subtype 2a
[6] = Inhibition of purified wild type Hepatitis C virus 4a NS5B polymerase; design: species or system Hepatitis C virus subtype 4a
[7] = Inhibition of purified wild type Hepatitis C virus 3a NS5B polymerase; design: species or system Hepatitis C virus subtype 3a
[8] = tested on: Hepatitis C virus subtype 1b; test: Selectivity ratio of IC50 for Hepatitis C virus NS5B polymerase S282T mutant to wild type Hepatitis C virus 1b NS5B polymerase

Sequence of RNA-directed RNA polymerase (O39930 entry or part of it S282T): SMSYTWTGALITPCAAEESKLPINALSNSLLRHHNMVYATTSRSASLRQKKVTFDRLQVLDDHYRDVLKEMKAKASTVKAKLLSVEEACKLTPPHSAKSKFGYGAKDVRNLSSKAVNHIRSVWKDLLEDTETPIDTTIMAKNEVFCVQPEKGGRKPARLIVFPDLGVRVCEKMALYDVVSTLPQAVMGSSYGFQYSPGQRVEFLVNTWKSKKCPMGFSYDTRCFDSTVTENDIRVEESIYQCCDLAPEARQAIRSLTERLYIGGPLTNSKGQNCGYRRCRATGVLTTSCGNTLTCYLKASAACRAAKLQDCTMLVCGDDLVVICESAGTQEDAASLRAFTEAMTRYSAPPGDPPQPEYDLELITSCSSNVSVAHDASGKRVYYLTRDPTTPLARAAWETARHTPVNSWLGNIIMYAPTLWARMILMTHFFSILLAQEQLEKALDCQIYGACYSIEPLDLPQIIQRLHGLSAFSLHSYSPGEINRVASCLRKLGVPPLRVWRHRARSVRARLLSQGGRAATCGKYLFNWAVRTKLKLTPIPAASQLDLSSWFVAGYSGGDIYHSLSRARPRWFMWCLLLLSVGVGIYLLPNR

EC50 (Hepatitis C virus) [µM] | SMILES | IC50 [1] [µM] | IC50 [2] [µM] | Activity [3] | further results
 | Nc1ccn([C@@H]2O[C@@]3(COP(=O)(O)OP(=O)(O)OP(=O)(O)O)CO[C@@H]2[C@@H]3O)c(=O)n1 | 1.39 | 1.44 |  | 
> 50 | O=c1ccn([C@@H]2O[C@@]3(CO)CO[C@@H]2[C@@H]3O)c(=O)[nH]1 |  |  | Non-toxic | 
> 50 | CC(O)[C@@]12CO[C@@H]([C@H](n3cnc4c(=O)[nH]c(N)nc43)O1)[C@@H]2O (mixture of isomers) |  |  | Non-toxic | 
 | CC(OP(=O)(O)OP(=O)(O)OP(=O)(O)O)[C@@]12CO[C@@H]([C@H](n3cnc4c(=O)[nH]c(N)nc43)O1)[C@@H]2O (stereo in doubt; form 1) | 15.9 | 25.1 |  | 
 | Nc1ncnc2c1ncn2[C@@H]1O[C@@]2(COP(=O)(O)OP(=O)(O)OP(=O)(O)O)CO[C@@H]1[C@@H]2O | 39.8 | 86.3 |  | 
 | CC(OP(=O)(O)OP(=O)(O)OP(=O)(O)O)[C@@]12CO[C@@H]([C@H](n3cnc4c(=O)[nH]c(N)nc43)O1)[C@@H]2O (stereo in doubt; form 2) | > 100 | > 100 |  | 
 | Nc1nc2c(ncn2[C@@H]2O[C@@]3(COP(=O)(O)OP(=O)(O)OP(=O)(O)O)CO[C@@H]2[C@@H]3O)c(=O)[nH]1 | 0.39 | 0.38 |  | IC50 [4]: 0.37 µM; IC50 [5]: 0.29 µM; IC50 [6]: 0.31 µM; IC50 [7]: 0.2 µM
> 50 | C[C@]12OC[C@](CO)(O[C@H]1n1cnc3c(=O)[nH]c(N)nc31)[C@H]2O |  |  | Non-toxic | 
> 50 | Nc1ncnc2c1ncn2[C@@H]1O[C@@]2(CO)CO[C@@H]1[C@@H]2O |  |  | Non-toxic | 
 | Nc1nc2c(ncn2[C@@H]2O[C@@]3(COP(=O)(O)OP(=O)(O)OP(=O)(O)O)CCO[C@@H]2[C@@H]3O)c(=O)[nH]1 | > 100 | > 100 |  | 
 | C[C@]12OC[C@](COP(=O)(O)OP(=O)(O)OP(=O)(O)O)(O[C@H]1n1cnc3c(=O)[nH]c(N)nc31)[C@H]2O | 0.2 | 0.48 |  | Ratio IC50 [8]: 2
> 50 | Nc1nc2c(ncn2[C@@H]2O[C@@]3(CO)CCO[C@@H]2[C@@H]3O)c(=O)[nH]1 |  |  | Non-toxic | 
> 50 | Nc1ccn([C@@H]2O[C@@]3(CO)CO[C@@H]2[C@@H]3O)c(=O)n1 |  |  | Non-toxic | 
> 50 | Nc1nc2c(ncn2[C@@H]2O[C@@]3(CO)CO[C@@H]2[C@@H]3O)c(=O)[nH]1 |  |  | Non-toxic | 
 | O=c1ccn([C@@H]2O[C@@]3(COP(=O)(O)OP(=O)(O)OP(=O)(O)O)CO[C@@H]2[C@@H]3O)c(=O)[nH]1 | 3.84 | 12.8 |  | 

From ChEMBL document CHEMBL3286168, “Synthesis of 2'-O,4'-C-alkylene-bridged ribonucleosides and their evaluation as inhibitors of HCV NS5B polymerase” (Bioorg Med Chem Lett, 2014)
